Tests used:
mouse lungs = test: Immunoblot of lung lysates from mice exposed to hyperoxia; assay type: in vivo
Method: FIG. 3 illustrates the finding that T3 pretreatment increases mitochondrial biogenesis/fusion/mitophagy and decreases ER stress & apoptosis. WT mice were nebulized with T3 (40 μg/kg) for 1 day or 3 days or PTU (100 μg/kg) for 3 days prior to 72 h continuous hyperoxia exposure. Lysates were isolated and immunoblotted against antibodies as listed. ([…] was used as protein loading control.
FIG. 5 illustrates the finding that T3 pretreatment increased Mito anti-ROS potential, biogenesis and mitophagy via PINK 1. WT and PINK1-KO mice were nebulized with T3 (40 μg/kg) for 3 days prior to 72 h continuous hyperoxia exposure. Lysates were isolated and immunoblotted against antibodies as listed. β-Actin was used as protein loading control.
FIG. 7 illustrates the finding that GC-1 pretreatment decreased hyperoxia-induced Mito dysfunction, ER stress and apoptosis. WT mice were orally gavaged with GC-1 (40 μm/kg) and exposed to RA or to hyperoxia for 72 h (H3). A time course of recovery after 72 h hyperoxia is shown (R1-3, 1, 2 3 and 6 days post-hyperoxia). Lysates from mouse lungs were immunoblotted against the listed antibodies (Abs).
FIG. 8 illustrates the finding that GC-1 pretreatment increases Tie2 activation and decreases Ang2. WT mice were orally gavaged with GC-1 (40 μm/kg) and exposed to RA or to hyperoxia for 72 h (H3). A time course of recovery after 72 h hyperoxia is shown (R1-3, 1, 2 3 and 6 days post-hyperoxia). Lysates from mouse lungs were immunoblotted against the listed antibodies.

[1] = test system: WT mice (hyperoxia-induced lung injury); test: Hyperoxia-induced lung injury in mice, BAL readouts (total cells, protein, LDH, Amplex Red oxidants, IL-1β, IL-6); assay type: in vivo
Method: FIG. 1 illustrates an exemplary T3 administration regime in mice. WT mice were nebulized with triiodothyronine (T3, 40 μg/kg) for 1 day or 3 days or propylthiouracil (PTU, 100 μg/kg) for 3 days prior to 72 h continuous hyperoxia exposure.
FIGS. 2A-2F illustrate the finding that T3 attenuates hyperoxia-induced lung injury, inflammation, and oxidants in WT mice. WT mice were nebulized with T3 (40 μg/kg) for 1 day or 3 days, or PTU (100 μg/kg) for 3 days prior to 72 h continuous hyperoxia exposure. Control mice were exposed to room air (RA). […] IL-1β (FIG. 2E) and IL-6 (FIG. 2F) were detected by ELISA in BALF. The values are expressed as mean±SD and analyzed by Mann-Whitney test n=6 for each group). *p<0.05, vs RA; **p<0.05, vs hyperoxia without pretreatment.
WT, PINK1−/−, and Parkin−/− mice were nebulized with T3 (40 μg/kg) for 3 days or no pretreatment prior to 72 h continuous hyperoxia exposure. […] IL-1β (FIG. 4E) and IL-6 (FIG. 4F) were detected by ELISA in BALF. The values are expressed as mean±SD and analyzed by Mann-Whitney test n=6 for each group). *p<0.05, vs WT no T3 RA; **p<0.05, vs WT no T3 hyperoxia; #p<0.05, vs corresponding RA; ##p<0.05, vs corresponding no T3 hyperoxia.
FIGS. 6A-6F illustrate the finding that GC-1 pretreatment prevents hyperoxia-induced lung injury and accelerates recovery. WT mice were orally gavaged with GC-1 (40 μm/kg) and then exposed to RA or to continuous hyperoxia for 72 h (H3). Recovery phase was initiated after 72 h hyperoxia (R1-3, 1, 2 3 and 6 days post-hyperoxia). Cells recovered from BAL were counted as BAL total cell counts (FIG. 6A). […] IL-6 (FIG. 6E) and IL-1β (FIG. 6F) was detected by ELISA in BALF. The values are expressed as mean±SD and analyzed by Mann-Whitney test (n=4 for each group). *p<0.05 versus no GC-1 RA; **p<0.05 versus no GC-1 H3; #p<0.05 versus corresponding no GC-1.

[2] = WT mice orally gavaged with GC-1 (40 μm/kg), 72 h hyperoxia and recovery, FIG. 8
[3] = WT mice nebulized with T3 (40 μg/kg) for 1 day or 3 days prior to 72 h hyperoxia, FIG. 3

SMILES | hyperoxia-induced Mito dysfunction, ER stress and apoptosis (mouse lungs; WT mice orally gavaged with GC-1 (40 μm/kg), 72 h hyperoxia and recovery, FIG. 7) | Ang2 (mouse lungs; [2]) | Tie2 activation (mouse lungs; [2]) | hyperoxia-induced lung injury ([1]; WT mice orally gavaged with GC-1 (40 μm/kg), then 72 h continuous hyperoxia (H3), FIGS. 6A-6F) | recovery after hyperoxia ([1]; WT mice orally gavaged with GC-1 (40 μm/kg), recovery phase 1, 2 3 and 6 days post-hyperoxia) | Mito anti-ROS potential, biogenesis and mitophagy (mouse lungs; WT and PINK1-KO mice nebulized with T3 (40 μg/kg) for 3 days prior to 72 h hyperoxia, via PINK 1, FIG. 5) | ER stress & apoptosis (mouse lungs; [3]) | mitochondrial biogenesis/fusion/mitophagy (mouse lungs; [3]) | hyperoxia-induced oxidants ([1]; WT mice nebulized with T3 (40 μg/kg) for 1 day or 3 days prior to 72 h continuous hyperoxia, Amplex Red, BAL fluid) | hyperoxia-induced lung injury ([1]; WT mice nebulized with T3 (40 μg/kg) for 1 day or 3 days prior to 72 h continuous hyperoxia, FIGS. 2A-2F) | hyperoxia-induced inflammation ([1]; WT mice nebulized with T3 (40 μg/kg) for 1 day or 3 days prior to 72 h continuous hyperoxia, IL-1β, IL-6 in BALF) | mediator of T3 effects against hyperoxia-induced lung injury ([1]; WT, PINK1−/− and Parkin−/− mice nebulized with T3 (40 μg/kg) for 3 days prior to 72 h hyperoxia, FIGS. 4A-4F)
Cc1cc(OCC(=O)O)cc(C)c1Cc1ccc(O)c(C(C)C)c1 [GC-1, 2-(4-(4-hydroxy-3-isopropylbenzyl)-3,5-dimethylphenoxy)acetic acid] | decreased | decreases | increases | prevents | accelerates |  |  |  |  |  |  | 
N[C@@H](Cc1cc(I)c(Oc2ccc(O)c(I)c2)c(I)c1)C(=O)O [T3, (S)-2-amino-3-[4-(4-hydroxy-3-iodophenoxy)-3,5-diiodophenyl]propanoic acid] |  |  |  |  |  | increased | decreases | increases | attenuates | attenuates | attenuates | PINK 1, not Parkin, mediates T3 effects
